Legend:
Gaeumannomyces graminis = assay: Field tests in Region IX of Chile, root rot in wheat plants; type: in vivo; details: four field experiments, highly rainy season
Description: This invention refers to natural fungicides used in seed treatment or soil treatment, that are obtained from quillay extract formulation, rich in saponin concentrations, to which synthetic polymers have been adhered (latex and resins) allowing its slow release in the soil, and which efficiency and control have been tested at a plant pot and field experiment level on fungus Gaeumannomyces graminis, which is the cause of take-all of wheat.

Ggt = assay: Plant pot experiments, control of take-all in wheat (Take-All Index); type: in vivo, Gaeumannomyces graminis
Procedure: Agronomic evaluation of control effectiveness of the formulations developed on the Ggt fungus was conducted through the establishment of 26 experiments in plant pots. These experiments allowed to evaluate new formulations, or correct defective aspects of the formulations developed. Evaluation methodology was made under greenhouse and awning conditions, considering: soil use of Yerbas Buenas ([…] Region VII), which was sterilized by autoclave and inoculated with Ggt grown in oat grains during 40 days. Soil was placed in PVC plant pots arranged on a wooden plate, where it was seeded with a wheat seed of cv. Dalcahue-INIA.
In these experiences two sample treatments were used (with and without inoculum) and one commercial sample Silthiofam (Latitude®, Monsanto) in dosis of 2 L/ton of seed to compare the effectiveness of different slow release formulations or “Slow release” based on quillay extract.

[1] = FIG. 6 experiment, Oct. 3, 2005
[2] = average of plant pot experiments

## C=CCNC(=O)c1c([Si](C)(C)C)sc(C)c1C [Silthiofam]
Gaeumannomyces graminis
  effectiveness in field experiments: did not show effectiveness
Ggt; FIG. 2 experiment, seed treatment, Silthiofam 2 L/ton of seed
  control with respect to the inoculated sample: 44%
Ggt; FIG. 3 experiment, seed treatments, QL 1000 4 L per ha
  control with respect to the inoculated sample: 50.8%
Ggt; [1]
  Take-All Index (TAI): 28
  control with respect to the non-treated sample: 71%
Ggt; [2]
  Take-All Index (TAI), average among all experiences: 24.6
  average control level with respect to the inoculated sample: 67.5%

— patent US20110190123A1, “SLOW-RELEASE FORMULATIONS CONTAINING QUILLAY EXTRACTS, FOR CONTROLLING WHEAT TAKE-ALL DISEASE” (priority 2008, published 2011)
